Article PMC7754465, “Multiparameter Kinetic Analysis for Covalent Fragment Optimization by Using Quantitative Irreversible Tethering (qIT)” (Chembiochem, 2020)
“Also recorded” adds a separate entry of the source.

Biological target: T1, Cdk2(ES) (Homo sapiens, UniProt P24941, C177A/F80C)
T1 construct: GST (N, cleaved yes); made in house; host or cells: E. coli Tuner(DE3)
Assay: intact-protein mass spectrometry of covalent modification
Assay type: binding
Settings: 0.5 mM acrylamide; 2 h for acrylamide 1
From the text: To orthogonally validate the results from the qIT assay, we undertook a mass spectrometric study to obtain a direct measurement of both the extent and site of covalent fragment modification. […] To confirm C80 as the site of modification, the 1‐Cdk2(ES) complex was digested with trypsin and the resulting peptides analysed by MALDI mass spectrometry. […] Tandem mass spectrometric analysis of this ion enabled confirmatory sequencing of the peptide and unambiguous assignment of C80 as the site of modification (Figure 4b).
See High-Throughput Kinetic Analysis for Target-Directed Covalent Ligand Discovery for full library details.4 In brief, Acryla-mide fragments were synthesized from amine precursors; 14,000 primary and secondary amines were selected from Enamine’s commercial collection with molecular weight < 250 Da, from which 235 unique Bemis-Murcko frameworks were generated.[5] […] The physiochemical properties of the final library were calculated using DataWarrior[6] and found to broadly comply with the ‘Rule of 3’ guidelines. […]
Reaction-plate setup: Each well of a 96-well PCR plate was charged with 60–100 µL of target thiol (GSH or protein, 10 µM) and 4% w/v TCEP-agarose beads in 100 mM phosphate buffer (pH 7.5 or 8) and cooled to 4 °C. […] For each time point, the fluorescence of each reaction was normalized relative Cdk2(ES)/GSH only control = maximum signal, DMSO only = minimum signal. […]

Structure (SMILES) | covalent modification of Cdk2(ES)
C=CC(=O)Nc1ccc(-c2ncccn2)cc1 [S1] | complete mono‐modification
C=CC(=O)N1CCCc2cc(C(=O)OC)ccc21 [compound 1] | fully modifies; also recorded: complete mono‐modification
